Patent US11173178B2, “Liposomes for drug delivery and methods for preparation thereof” (priority 2008, dated 2021)

Assay: Stability of oxaliplatin in hydration solution (UV, absorbance at 254 nm)
Type: physicochemical
Procedure: Oxaliplatin was dissolved in a hydration solution containing 10% sucrose and 1 mM Calcium gluconate (10 mg/ml). Sucrose was added to obtain an osmolarity approximately corresponding to physiological salt concentration. Stability of oxaliplatin in the hydration solution was followed by UV measurement. Samples were taken continually during storage at room temperature. Sample concentration measured was 0.1 mg/ml oxaliplatin. In order to follow the oxaliplatin stability a scan was performed from 200-350 nm (FIG. 1) and the absorbance at 254 nm was compared during storage (FIG. 2). Major changes in absorbance at 254 nm are usually related to oxaliplatin decomposition, which can easily be observed by dissolving oxaliplatin in solutions containing hydroxide and/or chloride ions.

O=C1[O][Pt]2([NH][C@@H]3CCCC[C@H]3[NH]2)[O]C1=O [Oxaliplatin, oxaliplatin]
decomposition during storage (absorbance at 254 nm) (10% sucrose solution containing 1 mM calcium gluconate, room temperature, at least 35 days): practically no decomposition | absorbance at 254 nm with common buffer components (phosphate, citrate, acetate, ethanolamine (data not shown)): decrease the absorbance at 254 nm
